Tests used:
iPSC-RPE (Z8) = assay: Extracellular EIS of iPSC-RPE response to apical ATP in perfusion chamber versus Ussing chamber; type: cell-based, human
Procedure: EIS measurements were performed with an Autolab PGSTAT204 with a FRA32M […] (Utrecht, Netherlands). The device was controlled with the provided NOVA 2.1.5 software to perform frequency sweeps from 0.1 Hz to 10 kHz. The NOVA software was used to send up to 5 simultaneous frequencies spaced to approximately 5 unique measurements per decade. The PGSTAT working electrode was connected to the working electrode and counter electrode; the sense and reference electrodes were connected to the basal and apical baths through the Ringer-based agar bridges (connected to Ag|AgClreference electrodes in a saturated KCl bath), respectively.
Chamber design and extracellular epithelial properties: A custom device was assembled to rapidly and noninvasively evaluate the evoked responses and recovery of RPE to extracellular ATP (FIG. 4.3).
The “perfusion” chamber in FIG. 8A was created using the same Acrylic material as the Ussing chamber but was designed to interface with an intact, 12-well Transwell insert (Corning costar 3460). Ag|AgCl wires were used as the working and counter electrodes. These electrodes were shaped into a symmetric ring of maximum diameter that fits inside the chamber and placed as far from the epithelia as possible to maximize uniformity of the current flux across the tissue. The sense and reference electrodes (used to measure TEP) were single-junction KCl reference electrodes. The KCl reference electrode was constructed with an Ag|AgCl wire that was inserted in a glass body (1.5 mm outer diameter) and backfilled with 3 M KCl. The terminus of these electrodes was made of a Vycor frit that enabled electrical contact between the 3 M KCl solution and the perfusate. Ag|AgCl electrodes were selected due to their rapid and reversible redox reactions, and the bridges were designed to minimize the effect of drifting Cl− ion concentrations on the electrode junction potential. The sense and reference electrodes were inserted through the cylinders extruding through the top of the device such that they were positioned as close as possible to the tissue. The design of the Acrylic cylinders included a kinematic constraint for the electrodes to ensure that the distance between the tissue and voltage-sensing probes was consistent across all experiments.
For example, the magnitudes of extracellular tissue properties in normal Ringer's solution should be compared.
Furthermore, to ensure that the perfusion device can maintain the health and function of epithelia during long experiments, a simple experiment was devised to last at least 45 min; sufficient for rigorous RPE experiments performed in literature ([39′], [7′]). During this experiment the tissues were briefly exposed (approximately 10 min) to 100 μM ATP at the apical membrane. […]

iPSC-derived RPE = assay: Combined intracellular pipette and EIS (3P-EIS) recording of iPSC-RPE response to apical ATP in modified Ussing chamber; type: cell-based, human; settings: for membrane-specific capacitance changes: apical ATP stimulation
Procedure: Human iPSC-RPE cells. The study performed the protocol for induced pluripotent stem cell (iPSC) differentiation described in [29]. Briefly, for each individual iPSC line, somatic cells (blood or fibroblasts) were isolated from a single donor and were reprogrammed using the Sendai virus or episomal reprograming methods. Reprogramed iPSC colonies were differentiated into RPE using the protocol described by Sharma et al.. iPSC-derived RPE cells were seeded onto Corning 3406 Transwells, with a seeding density of 300,000 cells/cm^2 and 250,000 cells/cm^2 and were measured at approximately 300 days old. Fully-mature RPE cells were characterized with a transmission electron microscope (TEM) for morphology, gene expression, and immunostaining for RPE-specific markers. For iPSC genotype, TaqMan genotyping assays (ThermoFisher) were used. The following probes were tested: rs1061170 (Assay ID: AHI1TPW; 4331349); rs2230199 (Assay ID: C_26330755_10; 4351379). SNP rs10490924 (Assay ID: C_29934973_20; 4351379). Two human donors were used to derive iPSC-RPE for this experiment. Samples 1 and 2 were derived from donor A, and sample 3 was derived from donor B.
Tissue mounting and maintenance. The study performed the method for mounting the tissue into the modified Ussing chamber for electrophysiology described in [32]. Briefly, a 7 mm diameter, circular section of the iPSC-RPE Transwell was punched out, mounted, and sealed into the chamber, apical side up. Electrical current leak, due to poor sealing between the Ussing chamber and the Transwell punch-out, was minimized by placing a nylon mesh insert beneath the sample so that the iPSC-RPE made contact around the entire circumference of the chamber. The total exposed tissue cross-section was approximately 0.11 cm^2. Experimental solutions were perfused across both sides of the tissue for the entire duration of the experiment.
Electrophysiological solution. The standard, control solution was the same modified Ringer's solution as has been described previously. In brief, the solution contains (in mM): 5 KCl, 116.5 NaCl, 23 NaHCO3, 0.5 MgCl2, 1.8 CaCl2, 2 taurine, 5 glucose, and 10 sucrose. All salts (except for CaCl2) were mixed into de-ionized water at room temperature (20 C). The solution was bubbled for approximately 5 minutes with 95% CO2 before the addition of CaCl2. […] During an experiment, the solution was continuously bubbled with a custom gas mixture (5% CO2, 10% 02, and 85% N2) to maintain the Ringer's solution to a pH near 7.4±0.1.
Measurement Setup and Electrode Configuration. To measure the apical and basolateral bath voltages, Ringer-filled 3.5% agar bridges were connected to saturated KCl baths with submerged, double-junction AgCl reference electrodes (Fisher Scientific, Accumet, cat. No. 13-620-855). AgCl-coated Ag wires (0.01″ diameter) were submerged directly into the apical and basolateral baths to apply current across the tissues during galvanostatic measurements. The Ussing chamber was rotated approximately 30 degrees from horizontal during each experiment to simultaneously enable equal fluidic pressures across the epithelia while simultaneously allowing for apical bath access for intracellular pipettes.
The study performed the protocol for inserting a pipette into the cell's cytoplasm (FIG. 5C, node 3) for intracellular recordings described in [32]. Briefly, a LabVIEW-based controller was used to insert a pipette—backfilled with 150 mM NaCl—into the cytoplasm of a single cell using an N-565.260 piezoelectric motor connected to an E-861.1A1 single-axis controller box (Physik Instrumente). The pipette voltage was amplified using a Multiclamp 700B (Molecular Devices) amplifier, and the trans-epithelial potential (TEP) signal was amplified using a VCC 600 (Physiologic Instruments). The primary output of the Multiclamp 700B had the settings: 10 mV/mV in “Membrane Potential” mode with “gain” set to 1, and the Bessel filter was set to 30 kHz. […]

Q: For `Nc1ncnc2c1ncn2[C@@H]1O[C@H](COP(=O)(O)OP(=O)(O)OP(=O)(O)O)[C@@H](O)[C@H]1O` [ATP, adenosine triphosphate], which “tissue capacitance (Ct) average decrease” value (iPSC-RPE (Z8); 100 μM apical ATP, about 10 min, Ussing chamber) is on record?
A: The value was 3%.

Q: And the “tissue capacitance (Ct) average increase” value (iPSC-RPE (Z8); 100 μM apical ATP, about 10 min, perfusion chamber)?
A: Its value is 11%.

Q: And the “time to return to within 95% of baseline after ATP” value (iPSC-RPE (Z8); both perfusion and Ussing chambers)?
A: Its value is no more than 40 min.

Q: And the “extracellular time constant ratio response” value (iPSC-RPE (Z8); during ATP exposure, samples 1, 2 and 3, Ussing chamber)?
A: The value was “increased in magnitude”.

Q: What about the “apical membrane resistance decrease” value (iPSC-derived RPE; 100 μM apical ATP exposure, sample 1) of the same compound?
A: Its value is 62%.

Q: And the “apical membrane resistance increase” value (iPSC-derived RPE; 100 μM apical ATP exposure, sample 2)?
A: The value was 89%.

Q: What about the “apical membrane resistance increase” value (iPSC-derived RPE; 100 μM apical ATP exposure, sample 3) of the same compound?
A: Its value is 139%.

Q: And the membrane-specific capacitance changes (iPSC-derived RPE; Sample 1)?
A: Its membrane-specific capacitance changes is “did not display ATP650-induced changes”.

Q: What about the membrane-specific capacitance changes (iPSC-derived RPE; Samples 2 and 3) of the same compound?
A: The membrane-specific capacitance changes was “concurrent reductions in apical capacitance and elevations in basolateral capacitance”.

Q: And the “depolarization of the apical membrane (Va)” value (shortened to “depolarization”) (iPSC-derived RPE; by the end of the ATP exposure, all three samples)?
A: The value was “approximately 20 mV”.

Q: And the “change in apical capacitance Ca” value (iPSC-derived RPE; during ATP administration)?
A: Its value is 12%.

Q: And the “change in basolateral capacitance Cb” value (iPSC-derived RPE; during ATP administration)?
A: Its value is −6%.

Q: And the TER response (iPSC-derived RPE; during ATP exposure, 3P-Classical or exemplary method)?
A: The TER response was “decrease in TER”.

Q: What about the “basolateral resistance (Rb) response” value (iPSC-derived RPE; during ATP exposure, Sample 3) of the same compound?
A: Its value is “expected reduction”.

Q: What about the “shunt resistance (Rs) response” value (iPSC-derived RPE; during ATP exposure, all samples) of the same compound?
A: The value was “rapid and substantial decrease”.

Q: And the “depolarization” value (iPSC-derived RPE; first phase of the ATP-induced response, Sample 3)?
A: The value was 10 mV.

Q: And the “depolarization” value (iPSC-derived RPE; first phase of the ATP-induced response, Samples 1 and 2)?
A: The value was 20 mV.

Q: What about the TEP response (iPSC-derived RPE; remainder of the ATP exposure, all three samples) of the same compound?
A: The TEP response was “increase in TEP”.
